In assay [1] the test system is oxidatively modified low density lipoprotein (LDL). Put plainly: inhibition of LDL oxidation induced by Cu++ ions or cultured endothelial cells (TBARS method). The settings on record: maximal inhibition of the process. From the text:
(§1) The antioxidant properties of 17β-dihydroequilenin were established in a standard pharmacological test procedure that measured the its ability to inhibit the formation of oxidatively modified low density lipoprotein (LDL) induced by exposure to either Cu++ ions or cultured endothelial cells (Parthasarathy S, Proc Natl Acad Sci USA 86:1046–1050 (1989)) by the TBARS (thiobarbituric acid reactive substances) method for analysis of free aldehydes (Yagi K., Biochem Med 15:212–216 (1976)).

Assay [2] shares this test system. Briefly: porcine aortic endothelial cell mediated LDL oxidation assay (TBARS method). Conditions: pocine aortic endothelial cell mediated oxidation of LDL. The class given is cell-based.
Description: as §1

What is called IC50 is the concentration that inhibits the measured activity by half. A low value points to higher potency.

`C[C@]12CCc3c(ccc4cc(O)ccc34)[C@@H]1CC[C@@H]2O` [17β-dihydroequilenin]: the “inhibition of LDL oxidation” value in assay [1] is reported as “up to 100%”. Further, the IC50 in assay [2] worked out at 315 nM.

`C[C@]12CC[C@@H]3c4ccc(O)cc4CC[C@H]3[C@@H]1CCC2=O` [estrone, reference compound] showed an IC50 in assay [2] of 560 nM.
